Assay results published in patent US20110243844A1, “SULFONAMIDE DERIVATIVE METABOTROPIC GLUTAMATE R4 LIGANDS” (priority 2008, published 2011).

Experiments:
mGluR4 [1] = target: T1, mGluR4 (Homo sapiens, UniProt Q14833); assay: Fluorescent Imaging Plate Reader (FLIPR) assay for mGluR4 potentiators; format: cell-based; set-up: expressed in transfected cells; conditions: for EC50: inflection point of curve, potentiation of EC10 concentration of L-AP4 (30 nM), read-out: mGluR4 FLIPR Potency; for Emax: maximal activity relative to response with saturating concentration (10 uM) of agonist L-AP4, read-out: mGluR4 FLIPR % Max Efficacy
T1 sequence (Q14833 33-912): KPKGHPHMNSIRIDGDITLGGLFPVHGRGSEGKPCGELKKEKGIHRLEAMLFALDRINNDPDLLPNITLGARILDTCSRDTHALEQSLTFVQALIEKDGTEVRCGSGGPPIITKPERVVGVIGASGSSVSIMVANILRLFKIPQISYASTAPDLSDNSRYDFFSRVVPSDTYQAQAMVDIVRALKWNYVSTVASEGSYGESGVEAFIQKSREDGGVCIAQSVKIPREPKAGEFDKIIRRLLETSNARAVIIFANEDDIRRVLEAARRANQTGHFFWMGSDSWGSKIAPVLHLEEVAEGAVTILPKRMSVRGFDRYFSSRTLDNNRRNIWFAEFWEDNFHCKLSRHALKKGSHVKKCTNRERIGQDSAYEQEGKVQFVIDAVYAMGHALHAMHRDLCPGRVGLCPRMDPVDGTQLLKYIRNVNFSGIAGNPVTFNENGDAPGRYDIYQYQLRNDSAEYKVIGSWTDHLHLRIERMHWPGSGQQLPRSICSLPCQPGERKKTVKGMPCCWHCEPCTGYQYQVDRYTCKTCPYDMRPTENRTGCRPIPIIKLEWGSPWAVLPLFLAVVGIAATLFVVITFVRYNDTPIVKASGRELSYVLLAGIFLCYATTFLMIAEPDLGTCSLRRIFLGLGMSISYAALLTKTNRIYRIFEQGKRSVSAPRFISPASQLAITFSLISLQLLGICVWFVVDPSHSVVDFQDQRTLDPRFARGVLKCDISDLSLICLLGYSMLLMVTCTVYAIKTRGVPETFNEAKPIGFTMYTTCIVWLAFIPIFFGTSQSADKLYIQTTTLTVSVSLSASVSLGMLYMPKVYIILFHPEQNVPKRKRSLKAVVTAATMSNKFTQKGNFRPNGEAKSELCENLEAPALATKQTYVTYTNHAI
Experimental: Fluorescent Imaging Plate Reader (FLIPR) Assay for mGluR4 Potentiators Cells are grown in Corning […] cm^2 flasks in DMEM growth media at 37° C. and 5% CO2. Growth media contains: […] The day prior to the experiment the cells were plated in growth medium (minus glutamine) at 50K cells/well into Becton-Dickinson 384-well PDL-coated plates using a Labsystems Multidrop (0.1 ml/well). The cells are grown overnight at 37° C. and 6% CO2. The following day, the cells are washed with Assay Buffer at 37° C. using a Skatron EMBLA cell washer (3×100 μl, aspiration 3 mm from bottom will leave 30 μl of buffer in each well). Assay buffer is Hanks balanced salt solution with 20 mM HEPES, 2.5 mM probenecid and 0.1% BSA. Fluorescent dye, 30 μl of the diluted Fluo-4-AM, is added to each well of the plate. […] The assay plates are placed back into the 6% CO2 incubator and incubated at 37° C. for 60 min. The 384-well plates are washed with Assay Buffer at 37° C. on using a cell washer (3×100 μl, aspiration 3 mm from bottom, will leave 30 μl of buffer in each well). The experimental run is initiated and after 30 sec a dose of test compound is applied. The fluorescent response elicited by test compound is monitored for 5 min, any positive response detected at this stage is attributed to agonist properties of the test compound. […] Controls for the assay include a no compound control, a positive control which is a saturating concentration, 10 uM, of the agonist L-AP4. A 10 point dose response, with either 2-fold or 3-fold dilution steps, is performed and curve fitting algorithms, suitable for a sigmoidal dose response relationship, are used to fit the data. The inflection point of the curve provides a measure of compound potency. A comparison of the maximal level of activity achieved for a test compound, relative to the response achieved with a saturating concentration of the agonist L-AP4 provides a measure of compound efficacy.

mGluR4 [2] = target: T1, mGluR4; assay: mGluR4 binding assay (filtration, [3H] radiotracer displacement, in presence of L-AP4); set-up: expressed in transfected cells; host or cells: CHO cells; conditions: membranes from CHO cells expressing human mGluR4; 20 uM L-AP4; 7 nM radiotracer; 1 hour at room temperature
Experimental: Membranes were prepared from CHO cells expressing the human mGluR4 receptor. Cells were harvested using trypsin and then washed in assay buffer, assay buffer contains 50 mM HEPES, 1 mM EDTA and protease inhibitors (Boehringer Mannheim catalog #1 836 170). Harvested cells were pelleted by centrifugation and stored at −80° C. for a minimum of 12 hours. Cells were resuspended in assay buffer and lysed by a polytron, a low speed spin, 2000×g for 10 min, was used to recover unbroken cells for additional treatment using the polytron. The cleared supernatant from the low speed spins was subjected to a high speed spin, 96,000×g for 1 hour. The membrane pellet from the high speed spin was resuspended in assay buffer and used in the mGluR4 binding assay.
The binding assay follows a standard filtration binding paradigm. The binding buffer consists of 20 mM HEPES, 100 mM NaCl and 3 mM MgCl2, the pH of the buffer is 7.4. The assay is performed in a 96-well format with each well containing test compound, 25 to 50 ug of membrane protein, 20 uM L-AP4, and 7 nM radiotracer, [^3H]-N-[3-Chloro-4-(4-methyl-1,3-dioxo-1,3-dihydro-2H-isoindol-2-yl)phenyl]pyridine-2-carboxamide, which is disclosed in commonly owned U.S. patent application docket no. MRL-NOP-00030-US-PSP, filed contemporaneously with this application.
The binding reaction is incubated at room temperature for 1 hour, and then is passed through GF/B filter that was presoaked with 0.5% PEI. The cell membranes are collected on the filter and then washed five times with ˜5 ml ice cold binding buffer that contains 0.01% BSA. The washed filter plate is dried for 30 minutes at 37° C., scintillation fluid is added, and the amount of filter bound radioactivity is determined using a TopCount instrument. Total binding is determined in the absence of any test compound, but in the presence of the DMSO concentration that would result from the addition of test compound. To determine the level of non-specific binding for the radiotracer [^3H]-N-[3-Chloro-4-(4-methyl-1,3-dioxo-1,3-dihydro-2H-isoindol-2-yl)phenyl]pyridine-2-carboxamide, 5 uM of unlabeled […]N-[3-Chloro-4-(4-methyl-1,3-dioxo-1,3-dihydro-2H-isoindol-2-yl)phenyl]pyridine-2-carboxamide, is added to determine the level of non-specific binding.
A 10-point dose response, with either 2-fold or 3-fold dilution steps, is performed and curve fitting algorithms, suitable for a sigmoidal dose response relationship, are used to fit the data. The inflection point of the curve, or IC50, provides a measure of the affinity of a test compound for the mGluR4 receptor.

| SMILES | EC50 (mGluR4 [1]) [nM] | Emax (mGluR4 [1]) [%] | IC50 (mGluR4 [2]) [nM] |
| --- | --- | --- | --- |
| COc1cc(NC(=O)c2ccccn2)ccc1S(=O)(=O)Nc1ccccc1 [Example 6] | 3940 | 70 | 6080 |
| O=C(Nc1ccc(S(=O)(=O)Nc2ccccc2Cl)cc1)c1ccccn1 [Example 1, N-(4-{[(2-Chlorophenyl)amino]sulfonyl}phenyl)pyridine-2-carboxamide] | 162 | 111 | 33 |
| O=C(Nc1ccc(S(=O)(=O)Nc2ccccc2Cc2ccccc2)cc1)c1ccccn1 [Example 41] | 480 | 124 | 182 |
| O=C(Nc1ccc(S(=O)(=O)Nc2ccccc2Br)cc1)c1ccccn1 [Example 30] | 134 | 110 | 141 |
| Cc1ccc(NS(=O)(=O)c2ccc(NC(=O)c3ccccn3)cc2)cc1 [Example 18] | 1350 | 93 | 1100 |
